Experimental findings from patent US20240025884A1 (Dong-A ST Co., Ltd., priority 2022, published 2024) are described below.

Some results are limits rather than exact numbers.

The target of this assay is GCN2 (Homo sapiens (Human), UniProt Q9P2K8). The assay can be described thus: GCN2 Biochemical Assay (TR-FRET, GFP-eIF2S1 substrate phosphorylation). Conditions: read-out: IC50 (GCN2 Inhibitory Activity). The procedure, abridged: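 TR-FRET readout (Ex 340, Em 490/520 nm) after 2–3 h with Tb-labelled phospho-eIF2S1 antibody in stop mix, following a 70 min room-temperature kinase step. Reaction: in-house GCN2, GFP-eIF2S1, ATP, tRNA in Tris pH 7.5 (2× stocks 1.6 nM, 50 nM, 0.2 mM); compounds tested at 10 concentrations, with a phospho-substrate artifact counter-plate.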
Sequence of GCN2 (Q9P2K8 whole entry): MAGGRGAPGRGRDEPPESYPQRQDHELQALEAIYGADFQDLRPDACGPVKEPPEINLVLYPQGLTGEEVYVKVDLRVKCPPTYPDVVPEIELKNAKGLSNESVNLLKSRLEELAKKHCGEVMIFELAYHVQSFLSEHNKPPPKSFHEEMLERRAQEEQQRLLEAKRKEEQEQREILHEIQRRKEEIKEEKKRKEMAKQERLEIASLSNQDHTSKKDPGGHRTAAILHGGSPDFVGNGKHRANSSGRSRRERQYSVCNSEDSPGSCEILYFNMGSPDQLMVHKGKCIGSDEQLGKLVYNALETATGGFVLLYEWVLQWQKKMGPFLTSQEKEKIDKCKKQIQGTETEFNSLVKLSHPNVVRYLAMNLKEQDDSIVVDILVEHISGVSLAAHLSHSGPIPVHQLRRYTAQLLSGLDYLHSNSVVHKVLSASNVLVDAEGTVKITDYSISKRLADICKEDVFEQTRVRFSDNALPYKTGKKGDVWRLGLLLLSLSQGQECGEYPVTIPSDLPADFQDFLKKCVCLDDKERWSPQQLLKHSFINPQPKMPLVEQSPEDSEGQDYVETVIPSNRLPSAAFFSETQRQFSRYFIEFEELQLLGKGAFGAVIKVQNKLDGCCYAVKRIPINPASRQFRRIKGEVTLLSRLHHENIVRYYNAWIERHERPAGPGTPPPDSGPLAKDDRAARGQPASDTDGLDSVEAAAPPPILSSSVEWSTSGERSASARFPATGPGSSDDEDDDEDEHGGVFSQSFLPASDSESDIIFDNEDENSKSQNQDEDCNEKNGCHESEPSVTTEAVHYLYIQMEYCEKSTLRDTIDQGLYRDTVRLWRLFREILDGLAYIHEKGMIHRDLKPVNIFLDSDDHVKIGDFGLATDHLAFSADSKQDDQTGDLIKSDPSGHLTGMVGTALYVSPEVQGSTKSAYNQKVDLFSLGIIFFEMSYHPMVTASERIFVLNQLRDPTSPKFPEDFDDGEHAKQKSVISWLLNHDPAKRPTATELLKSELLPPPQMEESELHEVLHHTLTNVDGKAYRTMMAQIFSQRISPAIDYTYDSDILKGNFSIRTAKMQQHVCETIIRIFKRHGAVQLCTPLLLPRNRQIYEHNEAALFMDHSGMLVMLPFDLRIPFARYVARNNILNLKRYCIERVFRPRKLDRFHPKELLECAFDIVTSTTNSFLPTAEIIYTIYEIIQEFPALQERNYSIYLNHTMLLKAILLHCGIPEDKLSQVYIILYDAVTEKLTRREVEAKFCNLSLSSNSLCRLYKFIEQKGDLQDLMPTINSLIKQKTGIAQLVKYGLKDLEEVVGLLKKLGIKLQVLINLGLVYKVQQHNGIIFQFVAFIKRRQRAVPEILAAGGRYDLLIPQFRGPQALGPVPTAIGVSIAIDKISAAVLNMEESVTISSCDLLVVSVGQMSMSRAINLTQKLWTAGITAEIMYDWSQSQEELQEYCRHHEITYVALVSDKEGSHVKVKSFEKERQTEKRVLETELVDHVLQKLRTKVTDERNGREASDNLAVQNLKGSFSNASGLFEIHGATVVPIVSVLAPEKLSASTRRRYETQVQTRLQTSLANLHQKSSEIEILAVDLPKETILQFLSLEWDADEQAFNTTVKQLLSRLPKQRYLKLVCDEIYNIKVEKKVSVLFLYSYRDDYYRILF
A general note: Time-resolved FRET reads energy transfer from a long-lived donor to a nearby acceptor.
For the compound `Cc1cnc(Nc2cc(C)n(C)n2)nc1-c1c[nH]c2c(N3Cc4c(cccc4-c4ccc[nH]4)C3=O)cccc12` [Example 442, 2-(3-(2-((1,5-dimethyl-1H-pyrazol-3-yl)amino)-5-methylpyrimidin-4-yl)-1H-indol-7-yl)-4-(1H-pyrrol-2-yl)isoindolin-1-one], the IC50 – broadly, the midpoint of a concentration-inhibition curve – lay within 10 to 100 nM.

In the case of `Cc1cnc(Nc2cc(C)n(C)n2)nc1-c1c[nH]c2c(NC(=O)CN3CC[C@H](Oc4ccnc(NC5CCCC5)n4)C3)cccc12` [Example 209, (S)-2-(3-((2-(cyclopentylamino)pyrimidin-4-yl)oxy)pyrrolidin-1-yl)-N-(3-(2-((1,5-dimethyl-1H-pyrazol-3-yl)amino)-5-methylpyrimidin-4-yl)-1H-indol-7-yl)acetamide], the IC50 fell in the range of 10 to 100 nM.

Turning to `Cc1cnc(Nc2cc(C)n(C)n2)nc1-c1c[nH]c2c(N3Cc4ccc(NC(=O)C5CC5)cc4C3=O)cccc12` [Example 291, N-(2-(3-(2-((1,5-dimethyl-1H-pyrazol-3-yl)amino)-5-methylpyrimidin-4-yl)-1H-indol-7-yl)-3-oxoisoindolin-5-yl)cyclopropanecarboxamide], the IC50 is less than 10 nM.

Consider `Cc1cnc(Nc2cc(C)n(C)n2)nc1-c1c[nH]c2c(N3Cc4c(cccc4-c4ccnc5[nH]ccc45)C3=O)cccc12` [Example 411, 2-(3-(2-((1,5-dimethyl-1H-pyrazol-3-yl)amino)-5-methylpyrimidin-4-yl)-1H-indol-7-yl)-4-(1H-pyrrolo[2,3-b]pyridin-4-yl)isoindolin-1-one], for which the IC50 is less than 10 nM.

On to `Cc1cnc(Nc2cc(C)n(C)n2)nc1-c1c[nH]c2c(NC(=O)CN3CC[C@H](Oc4cnc(N5CCOCC5)nc4)C3)cccc12` [Example 241, (S)-N-(3-(2-((1,5-dimethyl-1H-pyrazol-3-yl)amino)-5-methylpyrimidin-4-yl)-1H-indol-7-yl)-2-(3-((2-morpholinopyrimidin-5-yl)oxy)pyrrolidin-1-yl)acetamide], for which the IC50 lay within 10 to 100 nM.

`Cc1cnc(Nc2cc(C)n(C)n2)nc1-c1c[nH]c2c(NC(=O)CN3CC[C@H](Oc4nc(NCC5CC5)ncc4F)C3)cccc12` [Example 229, (S)-2-(3-((2-((cyclopropylmethyl)amino)-5-fluoropyrimidin-4-yl)oxy)pyrrolidin-1-yl)-N-(3-(2-((1,5-dimethyl-1H-pyrazol-3-yl)amino)-5-methylpyrimidin-4-yl)-1H-indol-7-yl)acetamide]: the IC50 lay in the range of 10 to 100 nM.

Take `Cc1cncc(-c2nccc3c2CN(c2cccc4c(-c5nc(Nc6cc(C)n(C)n6)ncc5C)c[nH]c24)C3=O)c1` [Example 505, 2-(3-(2-((1,5-dimethyl-1H-pyrazol-3-yl)amino)-5-methylpyrimidin-4-yl)-1H-indol-7-yl)-4-(5-methylpyridin-3-yl)-2,3-dihydro-1H-pyrrolo[3,4-c]pyridin-1-one]: the IC50 was less than 10 nM.

With `Cc1cnc(Nc2cc(C)n(C)n2)nc1-c1c[nH]c2c(N3Cc4c(C#Cc5ccc(N)cc5)cccc4C3=O)cccc12` [Example 357, 4-((4-aminophenyl)ethynyl)-2-(3-(2-((1,5-dimethyl-1H-pyrazol-3-yl)amino)-5-methylpyrimidin-4-yl)-1H-indol-7-yl)isoindolin-1-one], the IC50 was 10 to 100 nM.

In the case of `CNc1ncnc(O[C@H]2CCN(CC(=O)Nc3cccc4c(-c5nc(Nc6cc(C)n(C)n6)ncc5C)c[nH]c34)C2)n1` [Example 135, (S)-N-(3-(2-((1,5-dimethyl-1H-pyrazol-3-yl)amino)-5-methylpyrimidin-4-yl)-1H-indol-7-yl)-2-(3-((4-(methylamino)-1,3,5-triazin-2-yl)oxy)pyrrolidin-1-yl)acetamide], the IC50 is less than 10 nM.

For `Cc1cnc(Nc2cc(C)n(C)n2)nc1-c1c[nH]c2c(NC(=O)CN3CC[C@H](Oc4ccnc(NC5CCCCC5)n4)C3)cccc12` [Example 210, (S)-2-(3-((2-(cyclohexylamino)pyrimidin-4-yl)oxy)pyrrolidin-1-yl)-N-(3-(2-((1,5-dimethyl-1H-pyrazol-3-yl)amino)-5-methylpyrimidin-4-yl)-1H-indol-7-yl)acetamide], the IC50 is 10 to 100 nM.

On to `COCCNC(=O)/C=C/c1cccc2c1CN(c1cccc3c(-c4nc(Nc5cc(C)n(C)n5)ncc4C)c[nH]c13)C2=O` [Example 374, (E)-3-(2-(3-(2-((1,5-dimethyl-1H-pyrazol-3-yl)amino)-5-methylpyrimidin-4-yl)-1H-indol-7-yl)-1-oxoisoindolin-4-yl)-N-(2-methoxyethyl)acrylamide], for which the IC50 was less than 10 nM.

Regarding `Cc1cnc(Nc2cc(C)n(C)n2)nc1-c1c[nH]c2c(NC(=O)CN3CC[C@H](Oc4cc(-c5ccccc5)ncn4)C3)cccc12` [Example 248, (S)-N-(3-(2-((1,5-dimethyl-1H-pyrazol-3-yl)amino)-5-methylpyrimidin-4-yl)-1H-indol-7-yl)-2-(3-((6-phenylpyrimidin-4-yl)oxy)pyrrolidin-1-yl)acetamide], the IC50 lay within 10 to 100 nM.

In the case of `Cc1cnc(Nc2cc(C)n(C)n2)nc1-c1c[nH]c2c(N3Cc4c(cccc4C4=CCN(S(C)(=O)=O)CC4)C3=O)cccc12` [Example 465, 2-(3-(2-((1,5-dimethyl-1H-pyrazol-3-yl)amino)-5-methylpyrimidin-4-yl)-1H-indol-7-yl)-4-(1-(methylsulfonyl)-1,2,3,6-tetrahydropyridin-4-yl)isoindolin-1-one], the IC50 is less than 10 nM.

As for `Cc1cnc(Nc2cc3n(n2)CCC3)nc1-c1c[nH]c2c(NC(=O)CN3CC[C@H](Oc4ccncn4)C3)cccc12` [Example 15, (S)-N-(3-(2-((5,6-dihydro-4H-pyrrolo[1,2-b]pyrazol-2-yl)amino)-5-methylpyrimidin-4-yl)-1H-indol-7-yl)-2-(3-(pyrimidin-4-yloxy)pyrrolidin-1-yl)acetamide], the IC50 was less than 10 nM.

Consider `Cc1cnc(Nc2cc(C)n(C)n2)nc1-c1c[nH]c2c(N3Cc4c(/C=C/C(=O)O)cccc4C3=O)cccc12` [Example 367, (E)-3-(2-(3-(2-((1,5-dimethyl-1H-pyrazol-3-yl)amino)-5-methylpyrimidin-4-yl)-1H-indol-7-yl)-1-oxoisoindolin-4-yl)acrylic acid], for which the IC50 is less than 10 nM.

As to `Cc1cnc(Nc2cc(C)n(C)n2)nc1-c1c[nH]c2c(N3Cc4c(Br)cccc4C3=O)cccc12` [Example 266, 4-bromo-2-(3-(2-((1,5-dimethyl-1H-pyrazol-3-yl)amino)-5-methylpyrimidin-4-yl)-1H-indol-7-yl)isoindolin-1-one], the IC50 was less than 10 nM.

Consider `Cc1cnc(Nc2cc(C)n(C)n2)nc1-c1c[nH]c2c(N3Cc4c(NC(=O)[C@H]5CCC(=O)N5)cccc4C3=O)cccc12` [Example 318, (R)-N-(2-(3-(2-((1,5-dimethyl-1H-pyrazol-3-yl)amino)-5-methylpyrimidin-4-yl)-1H-indol-7-yl)-1-oxoisoindolin-4-yl)-5-oxopyrrolidine-2-carboxamide], for which the IC50 was less than 10 nM.

Regarding `Cc1cc(-c2cccc3c2CN(c2cccc4c(-c5nc(Nc6cc(C)n(C)n6)ncc5C)c[nH]c24)C3=O)cnc1F` [Example 407, 2-(3-(2-((1,5-dimethyl-1H-pyrazol-3-yl)amino)-5-methylpyrimidin-4-yl)-1H-indol-7-yl)-4-(6-fluoro-5-methylpyridin-3-yl)isoindolin-1-one], the IC50 fell in the range of 10 to 100 nM.

As to `Cc1cnc(Nc2cc(C)n(C)n2)nc1-c1c[nH]c2c(N3C(=O)c4cccc(F)c4C3=O)cccc12` [Example 261, 2-(3-(2-((1,5-dimethyl-1H-pyrazol-3-yl)amino)-5-methylpyrimidin-4-yl)-1H-indol-7-yl)-4-fluoroisoindoline-1,3-dione], the IC50 is less than 10 nM.
